Test results as given in ChEMBL document CHEMBL5108044, “Discovery of a Novel Potent STAT3 Inhibitor HP590 with Dual p-Tyr705/Ser727 Inhibitory Activity for Gastric Cancer Treatment” (J Med Chem, 2022).
pIC50: −log10 of the molar value. Active and inactive are the calls of the source. The calls are words filed in the database; no cut-off is given here.

Experiments:
MGC-803 = test: Antiproliferative activity against human MGC-803 cells assessed as reduction in cell viability incubated for 72 hrs by MTS assay; type: functional, cell-based; details: MGC-803, 72 h
[1] = biological target: T1, Signal transducer and activator of transcription 3 (Homo sapiens, UniProt P40763); test: Inhibition of STAT3 phosphorylation at Tyr705 residue in human MKN-45 cells upto 40 nM incubated upto 24 hrs by Western blotting analysis; type: cell-based
T1 sequence (P40763 whole entry): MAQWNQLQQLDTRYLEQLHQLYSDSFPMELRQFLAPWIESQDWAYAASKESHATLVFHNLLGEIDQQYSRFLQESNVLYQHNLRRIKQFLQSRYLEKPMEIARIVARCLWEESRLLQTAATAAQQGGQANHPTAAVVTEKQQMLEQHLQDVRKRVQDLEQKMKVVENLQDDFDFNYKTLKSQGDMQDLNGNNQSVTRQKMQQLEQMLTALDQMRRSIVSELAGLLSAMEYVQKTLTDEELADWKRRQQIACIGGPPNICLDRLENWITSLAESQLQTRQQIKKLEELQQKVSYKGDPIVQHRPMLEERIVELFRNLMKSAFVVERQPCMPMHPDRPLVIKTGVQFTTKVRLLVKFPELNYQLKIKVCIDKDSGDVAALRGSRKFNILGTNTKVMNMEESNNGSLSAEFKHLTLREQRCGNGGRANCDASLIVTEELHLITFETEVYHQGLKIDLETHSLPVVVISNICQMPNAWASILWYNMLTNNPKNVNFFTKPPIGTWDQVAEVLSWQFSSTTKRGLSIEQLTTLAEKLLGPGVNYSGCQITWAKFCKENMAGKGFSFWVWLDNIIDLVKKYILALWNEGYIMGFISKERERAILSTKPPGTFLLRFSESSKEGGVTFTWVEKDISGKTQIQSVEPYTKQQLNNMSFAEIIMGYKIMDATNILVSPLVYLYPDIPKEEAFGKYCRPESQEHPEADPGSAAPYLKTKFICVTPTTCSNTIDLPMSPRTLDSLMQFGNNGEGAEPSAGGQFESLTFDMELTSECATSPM

[2] = biological target: T1, Signal transducer and activator of transcription 3; test: Inhibition of STAT3 in human MKN-45 cells assessed as downregulation of cyclin D1 expression incubated up to 24 hrs by western blot analysis; type: cell-based; details: dose <= 40.0 nM, DDE = dose-dependent effect
[3] = biological target: T1, Signal transducer and activator of transcription 3; test: Inhibition of STAT3 in human MGC-803 cells assessed as downregulation of cyclin D1 expression up to 40 nM by western blot analysis; type: cell-based; details: time <= 24.0 hrs, TDE = time-dependent effect
[4] = biological target: T1, Signal transducer and activator of transcription 3; test: Inhibition of STAT3 in human MKN-45 cells assessed as downregulation of c-myc expression at 10 to 40 nM incubated for 24 hrs by RT-PCR analysis; type: cell-based; details: dose 10-40 nM
MKN-45 = test: Induction of apoptosis in human MKN-45 cells assessed as late apoptic cells 20 nM incubated for 48 hrs by FITC-annexin V/propidium iodide staining based flow cytometry (reference value: 17.9%); type: functional
AGS = test: Induction of apoptosis in human AGS cells assessed as early apoptic cells 20 nM incubated for 48 hrs by FITC-annexin V/propidium iodide staining based flow cytometry (reference value: 0.55%); type: functional
[5] = Clearance in ICR mouse plasma at 1 mg/kg, iv measured up to 24 hrs by LC-MS/MS analysis; type: ADME, organism-based

## O=C(c1ccc(-c2noc(-c3ccc(C(F)(F)F)cc3)n2)cc1)N1CCN(Cc2ccc(OCC(F)(F)F)cc2)CC1
MGC-803
  pIC50: 8.06
[1]
  inhibition: 100%
[2]
  inhibition: Dde
[3]
  inhibition: Tde
[4]
  inhibition: Active
MKN-45
  Activity: 22%
AGS
  Activity: 3.8%
[5]
  clearance: 7.33 mL/min/kg
